Converted amounts (≈) assume the structure as drawn.
What was measured:
P2Y purinoceptor 12 [1] = target: T1, P2Y purinoceptor 12 (Homo sapiens, UniProt Q9H244); test: Inhibition of human P2Y12 receptor expressed in CHO cells
[2] = Antiplatelet activity in human platelet rich plasma assessed as inhibition of ADP-induced platelet aggregation; format: functional
[3] = Antiplatelet activity in human platelet rich plasma assessed as inhibition of ADP-induced platelet aggregation relative to AZD-6140; format: functional
[4] = Metabolic stability in rat microsomes; format: ADME, Microsome
[5] = Metabolic stability in human microsomes; format: ADME, Microsome
[6] = Clearance in Sprague-Dawley rat at 2 mg/kg, iv and 5 mg/kg, po; format: ADME, organism-based; conditions: in vivo
[7] = Volume of distribution at steady state in Sprague-Dawley rat at 2 mg/kg, iv and 5 mg/kg, po; format: ADME, organism-based; conditions: in vivo, read-out: Vdss
[8] = Effective half life in Sprague-Dawley rat at 2 mg/kg, iv and 5 mg/kg, po; format: ADME, organism-based; conditions: in vivo, read-out: t1/2eff (converted)
[9] = target: Voltage-gated inwardly rectifying potassium channel KCNH2 (Homo sapiens, UniProt Q12809); test: Inhibition of human ERG
Rattus norvegicus [10] = test: Toxicity in rat administered as single dose; format: organism-based; conditions: in vivo
[11] = Solubility at pH 2.0; format: physicochemical; conditions: buffer
[12] = Solubility at pH 6.5; format: physicochemical; conditions: buffer
[13] = Solubility at pH 9.0; format: physicochemical; conditions: buffer
[14] = Antiplatelet activity in human platelet rich plasma assessed as inhibition of ADP-induced platelet aggregation by chronolog PRP aggregometry assay; format: functional
P2Y purinoceptor 12 [15] = target: T1, P2Y purinoceptor 12; test: Inhibition of human P2Y12 receptor expressed in CHO cells in presence of 0.4% human serum albumin
[16] = Clearance in Beagle dog at 0.5 mg/kg, iv and 1 mg/kg, po; format: ADME, organism-based, Canis lupus familiaris; conditions: in vivo
[17] = Volume of distribution at steady state in Beagle dog at 0.5 mg/kg, iv and 1 mg/kg, po; format: ADME, organism-based, Canis lupus familiaris; conditions: in vivo, read-out: Vdss
[18] = Effective half life in Beagle dog at 0.5 mg/kg, iv and 1 mg/kg, po; format: ADME, organism-based, Canis lupus familiaris; conditions: in vivo
[19] = Protein binding in human plasma assessed as fraction unbound at 2 uM
[20] = Protein binding in human plasma assessed as fraction unbound at 10 uM
[21] = Protein binding in human plasma assessed as fraction unbound at 0.2 uM
Rattus norvegicus [22] = test: Toxicity in rat administered as 7 day repeat dose; format: organism-based; conditions: in vivo, 168 h
in vivo = conditions: Sprague-Dawley, rat, po, 5 mg/kg

T1 sequence (Q9H244 whole entry): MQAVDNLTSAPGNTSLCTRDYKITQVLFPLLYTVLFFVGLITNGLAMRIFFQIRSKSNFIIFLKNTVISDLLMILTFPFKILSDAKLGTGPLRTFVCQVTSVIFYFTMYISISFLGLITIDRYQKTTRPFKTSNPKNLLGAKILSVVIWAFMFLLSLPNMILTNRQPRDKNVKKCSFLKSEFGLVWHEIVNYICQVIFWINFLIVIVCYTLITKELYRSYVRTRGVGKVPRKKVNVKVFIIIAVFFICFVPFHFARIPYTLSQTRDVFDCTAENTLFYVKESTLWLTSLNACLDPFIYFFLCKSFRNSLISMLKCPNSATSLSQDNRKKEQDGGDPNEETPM
Chain of Voltage-gated inwardly rectifying potassium channel KCNH2 (Q12809 whole entry): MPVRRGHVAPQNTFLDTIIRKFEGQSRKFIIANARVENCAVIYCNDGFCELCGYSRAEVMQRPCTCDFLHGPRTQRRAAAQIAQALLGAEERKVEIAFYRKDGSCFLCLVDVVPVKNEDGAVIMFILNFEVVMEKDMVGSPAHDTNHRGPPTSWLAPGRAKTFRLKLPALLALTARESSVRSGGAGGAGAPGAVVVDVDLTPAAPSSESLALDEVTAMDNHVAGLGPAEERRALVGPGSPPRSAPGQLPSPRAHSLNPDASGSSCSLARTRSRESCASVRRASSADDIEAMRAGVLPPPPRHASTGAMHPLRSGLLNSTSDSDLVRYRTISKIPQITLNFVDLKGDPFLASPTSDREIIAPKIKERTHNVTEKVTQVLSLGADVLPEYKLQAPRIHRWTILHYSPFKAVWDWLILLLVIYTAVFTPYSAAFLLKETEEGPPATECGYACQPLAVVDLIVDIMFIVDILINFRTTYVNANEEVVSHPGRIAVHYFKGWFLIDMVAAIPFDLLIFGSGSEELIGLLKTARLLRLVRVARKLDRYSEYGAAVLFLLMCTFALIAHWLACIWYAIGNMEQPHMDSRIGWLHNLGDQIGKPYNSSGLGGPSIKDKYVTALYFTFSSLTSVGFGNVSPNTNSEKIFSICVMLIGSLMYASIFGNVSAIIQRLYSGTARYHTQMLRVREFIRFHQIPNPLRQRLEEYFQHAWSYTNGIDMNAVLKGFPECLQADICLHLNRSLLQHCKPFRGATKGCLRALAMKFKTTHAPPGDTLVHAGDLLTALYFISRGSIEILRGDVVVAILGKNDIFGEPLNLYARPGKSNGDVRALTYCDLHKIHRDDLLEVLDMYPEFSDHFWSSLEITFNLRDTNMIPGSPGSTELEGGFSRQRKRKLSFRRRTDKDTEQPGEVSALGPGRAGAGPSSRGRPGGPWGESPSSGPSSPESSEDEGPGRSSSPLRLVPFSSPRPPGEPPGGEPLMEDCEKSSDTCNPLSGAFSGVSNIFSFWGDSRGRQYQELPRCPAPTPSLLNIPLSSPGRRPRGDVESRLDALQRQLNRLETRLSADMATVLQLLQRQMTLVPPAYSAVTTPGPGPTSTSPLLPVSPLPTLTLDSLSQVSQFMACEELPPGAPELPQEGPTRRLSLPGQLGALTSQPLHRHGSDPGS

Row | Structure (SMILES) | Ki (P2Y purinoceptor 12 [1]) [nM] | IC50 [2] [nM] | Kb [2] [nM] | fold change (FC) [3] | Stability [4] | Stability [5] | clearance [6] [mL/min/kg] | Vd [7] [L/kg] | half-life [8] [h] | IC50 [9] [nM] | solubility [11] [µM] | solubility [12] [µM] | solubility [13] [µM] | IC50 [14] [nM] | Ki (P2Y purinoceptor 12 [15]) [nM] | clearance [16] [mL/min/kg] | Vd [17] [L/kg] | half-life [18] [h] | fraction unbound at 2 µM [19] | fraction unbound at 10 µM [20] | other results
1 | CCCCOC(=O)N1CCN(C(=O)[C@H](CCC(=O)O)NC(=O)c2cc(N3CCC(C(=O)N4CCCC4)CC3)cc(-c3ccccc3)n2)CC1 | 2.1 | 360 | 49 | 0.54 | Stable | Stable | 5 | 0.7 | 1.5 | > 90000 | 921 (≈ 623 µg/mL) | 195 (≈ 132 µg/mL) | 969 (≈ 656 µg/mL) | 255 | 6.3 | 3 | 0.22 | 0.8 | 0.044 | 0.033 | Activity (Rattus norvegicus [10]): Non-toxic; fraction unbound at 0.2 µM [21]: 0.034
2 | CCCCCOC(=O)N1CCN(C(=O)[C@H](CCC(=O)O)NC(=O)c2cc(N3CCC(C(=O)N4CCCC4)CC3)cc(-c3ccccc3)n2)CC1 | 2.8 | 400 | 68 | 0.65 | Stable | Stable | 5 | 0.5 | 1.1 | > 90000 | 299 (≈ 207 µg/mL) | 48 (≈ 33.2 µg/mL) | 1290 (≈ 892 µg/mL) | 325 | 6.7 | 2 | 0.18 | 1 | 0.057 | 0.061 | Activity (Rattus norvegicus [22]): Non-toxic; fraction unbound at 0.2 µM [21]: 0.053
3 | CCCCCOC(=O)N1CCN(C(=O)[C@H](CCC(=O)O)NC(=O)c2cc(N3CCC(C(N)=O)CC3)cc(-c3ccccc3)n2)CC1 | 6.5 | 2400 |  | 0.9 | Stable | Stable | 44 | 2.2 | 0.6 |  |  |  |  |  |  |  |  |  |  |  | bioavailability (in vivo): 2%

Source: ChEMBL document CHEMBL1156904, “Part II: piperazinyl-glutamate-pyridines as potent orally bioavailable P2Y12 antagonists for inhibition of platelet aggregation” (Bioorg Med Chem Lett, 2010)
